According to patent publication US11707440B2 (priority 2017, dated 2023):
Read-outs that look alike come from different tables or passages of the source.

Columns and labels:
[1] = test system: subjects with MDD at imminent risk for suicide; test: MADRS total score, study […]2001; assay type: in vivo, human; conditions: ITT analysis set; for MADRS total score change, Diff. of LS Means (SE) minus placebo: ANCOVA LOCF
Excerpt: Primary efficacy variable/Primary Time point: Change from baseline (Day 1, predose) to Day 1, 4-hours postdose in MADRS total score. The MADRS consists of 10 items that cover all of the core depressive symptoms, with each item scoring from 0 (item is not present or is normal) to 6 (severe or continuous presence of the symptom). A higher score represents a more severe condition.
The primary efficacy endpoint is the change in MADRS total score from baseline to Day 1: 4-hours postdose. MADRS total scores range from 0 to 60. […] As this is a phase 2a proof-of-concept study, statistical significance is based on a two-sided alpha level of 0.20. All p-values presented in this document are two-sided.

[2] = test system: subjects with MDD at imminent risk for suicide; test: Sustained response, response and remission based on MADRS, […]2001; assay type: in vivo, human; conditions: at least 50 percent reduction from baseline with onset on Day 1 maintained through Day 25; ITT analysis set
Excerpt: • a. Changes from baseline to Day 2 and Day 25 for the MADRS total score • b. Changes from baseline to Day 1 4-hours postdose, Day 2 and Day 25 for the MADRS Suicide Item • c. Changes from baseline to Day 1 4-hours postdose, Day 2, and Day 25 for the clinical global judgment of suicide risk from the Suicide Ideation and Behavior Assessment Tool (SIBAT) • d. Sustained response (Onset of Clinical Response) defined as at least 50% reduction from baseline in MADRS total score with onset on Day 1 that is maintained through the end of the double-blind phase (Day 25) • e. Changes from baseline to Day 1 4-hours postdose, Day 2, and Day 25 for the Beck Scale for Suicidal Ideation (BSS) • f. Changes from baseline to Day 1 4-hours postdose and Day 25 for the Beck Hopelessness Scale
Sustained response is defined as at least 50% reduction from baseline in MADRS total score with onset on Day 1: 4 hours postdose that is maintained through the end of the double-blind phase (Day 25). Four subjects in the esketamine 84 mg group and 2 subjects in the placebo group had sustained response throughout the double-blind phase.

[3] = test system: subjects with MDD at imminent risk for suicide; test: Beck Scale for Suicidal Ideation (BSS), […]2001; assay type: in vivo, human; conditions: for BSS total score change, Diff. of LS Means (SE) minus placebo: ANCOVA LOCF
Description: The BSS is a 21-item self-reported instrument to detect and measure the severity of suicidal ideation in adults and adolescents aged 17 years and older. The BSS total score represents the severity of suicide ideation, and it is calculated by summing the ratings of the first 19 items; the total score ranges from 0 to 38, with a higher score representing greater suicide ideation. Increasing scores reflect increases in suicidal risk.

[4] = test system: subjects with MDD at imminent risk for suicide; conditions: double-blind phase, safety analysis set
[5] = Baseline(DB), predose Day 1, ITT analysis set
[6] = Day 1(DB): 4H, LOCF, ITT analysis set
[7] = Day 2(DB), LOCF, ITT analysis set
[8] = End Point(DB), LOCF, ITT analysis set
[9] = TEAE in ≥5% of subjects in any treatment group
[10] = TEAE leading to study discontinuation

SMILES: CN[C@]1(c2ccccc2Cl)CCCCC1=O [Esketamine 84 mg]
- MADRS total score, Mean (SD) ([1]; Baseline(DB), predose Day 1): 38.5 (6.17)
- MADRS total score, Median (Range) ([1]; Baseline(DB), predose Day 1): 38.0 (27; 49)
- MADRS total score change, Diff. of LS Means (SE) minus placebo ([1]; Day 1(DB): 4H): −5.3 (2.10)
- MADRS total score change from baseline, Mean (SD) ([1]; Day 1(DB): 4H, LOCF): −13.4 (9.03)
- MADRS total score change from baseline, Median (Range) ([1]; Day 1(DB): 4H, LOCF): −14.0 (−32; 1)
- MADRS total score, Median (Range) ([1]; Day 1(DB): 4H, LOCF): 23.0 (7; 48)
- MADRS total score change, Diff. of LS Means (SE) minus placebo ([1]; Day 2(DB)): −7.2 (2.85)
- MADRS total score change from baseline, Mean (SD) ([1]; Day 2(DB), LOCF): −19.3 (12.02)
- MADRS total score change from baseline, Median (Range) ([1]; Day 2(DB), LOCF): −19.0 (−41; 1)
- MADRS total score, Median (Range) ([1]; Day 2(DB), LOCF): 18.0 (3; 42)
- MADRS total score change, Diff. of LS Means (SE) minus placebo ([1]; End Point(DB)): −4.5 (3.14)
- MADRS total score change from baseline, Mean (SD) ([1]; End Point(DB), LOCF): −26.4 (14.52)
- MADRS total score change from baseline, Median (Range) ([1]; End Point(DB), LOCF): −25.0 (−46; 13)
- MADRS total score, Median (Range) ([1]; End Point(DB), LOCF): 8.0 (0; 44)
- Day 25 sustained response based on MADRS total score: No [2]: 30 (88.2%) subjects (%)
- Day 25 sustained response based on MADRS total score: Yes [2]: 4 (118%) subjects (%)
- BSS total score, Mean (SD) [3, 5]: 24.0 (5.45)
- BSS total score, Median (Range) [3, 5]: 25.0 (8; 33)
- BSS total score change, Diff. of LS Means (SE) minus placebo ([3]; Day 1(DB): 4H): −2.3 (2.29)
- BSS total score change from baseline, Mean (SD) [3, 6]: −10.2 (9.74)
- BSS total score change from baseline, Median (Range) [3, 6]: −8.0 (−33; 8)
- BSS total score, Median (Range) [3, 6]: 16.5 (0; 31)
- BSS total score change, Diff. of LS Means (SE) minus placebo ([3]; Day 2(DB)): −1.9 (2.30)
- BSS total score, Mean (SD) [3, 7]: 11.1 (10.12)
- BSS total score, Median (Range) [3, 7]: 13.0 (0; 34)
- BSS total score change, Diff. of LS Means (SE) minus placebo ([3]; End Point(DB)): −1.7 (2.15)
- BSS total score change from baseline, Median (Range) [3, 8]: −21.0 (−33; 8)
- BSS total score, Mean (SD) [3, 8]: 4.7 (9.03)
- BSS total score, Median (Range) [3, 8]: 0.0 (0; 34)
- Abdominal pain [4, 9]: 0 no. subjects (%)
- Acne [4, 9]: 2 (5.7%) no. subjects (%)
- Agitation [4, 9]: 3 (8.6%) no. subjects (%)
- Anxiety [4, 9]: 6 (17.1%) no. subjects (%)
- Blepharospasm [4, 9]: 0 no. subjects (%)
- Blood pressure increased [4, 9]: 2 (5.7%) no. subjects (%)
- Constipation [4, 9]: 0 no. subjects (%)
- Diarrhea [4, 9]: 3 (8.6%) no. subjects (%)
- Diplopia [4, 9]: 2 (5.7%) no. subjects (%)
- Dissociation [4, 9]: 11 (31.4%) no. subjects (%)
- Dizziness [4, 9]: 12 (34.3%) no. subjects (%)
- Dizziness postural [4, 9]: 2 (5.7%) no. subjects (%)
- Dry mouth [4, 9]: 3 (8.6%) no. subjects (%)
- Dysgeusia [4, 9]: 11 (31.4%) no. subjects (%)
- Ear and labyrinth disorders [4, 9]: 9 (25.7%) no. subjects (%)
- Epistaxis [4, 9]: 0 no. subjects (%)
- Euphoric mood [4, 9]: 4 (11.4%) no. subjects (%)
- Eye disorders [4, 9]: 7 (20.0%) no. subjects (%)
- Fatigue [4, 9]: 2 (5.7%) no. subjects (%)
- Feeling abnormal [4, 9]: 3 (8.6%) no. subjects (%)
- Feeling cold [4, 9]: 2 (5.7%) no. subjects (%)
- Flatulence [4, 9]: 1 (2.9%) no. subjects (%)
- Gastrointestinal disorders [4, 9]: 19 (54.3%) no. subjects (%)
- General disorders and administration site conditions [4, 9]: 10 (28.6%) no. subjects (%)
- Headache [4, 9]: 11 (31.4%) no. subjects (%)
- Hyperacusis [4, 9]: 2 (5.7%) no. subjects (%)
- Hyperhidrosis [4, 9]: 2 (5.7%) no. subjects (%)
- Hypoesthesia [4, 9]: 3 (8.6%) no. subjects (%)
- Hypoesthesia oral [4, 9]: 2 (5.7%) no. subjects (%)
- Infections and infestations [4, 9]: 1 (2.9%) no. subjects (%)
- Insomnia [4, 9]: 3 (8.6%) no. subjects (%)
- Intranasal paranesthesia [4, 9]: 0 no. subjects (%)
- Investigations [4, 9]: 5 (14.3%) no. subjects (%)
- Nasal congestion [4, 9]: 1 (2.9%) no. subjects (%)
- Nasal discomfort [4, 9]: 3 (8.6%) no. subjects (%)
- Nausea [4, 9]: 13 (37.1%) no. subjects (%)
- Nervous system disorders [4, 9]: 25 (71.4%) no. subjects (%)
- Oropharyngeal pain [4, 9]: 2 (5.7%) no. subjects (%)
- Panic attack [4, 9]: 0 no. subjects (%)
- Paresthesia [4, 9]: 6 (17.1%) no. subjects (%)
- Paresthesia oral [4, 9]: 2 (5.7%) no. subjects (%)
- Pharyngeal hypoesthesia [4, 9]: 2 (5.7%) no. subjects (%)
- Pollakiuria [4, 9]: 0 no. subjects (%)
- Psychiatric disorders [4, 9]: 20 (57.1%) no. subjects (%)
- Rash [4, 9]: 1 (2.9%) no. subjects (%)
- Renal and urinary disorders [4, 9]: 1 (2.9%) no. subjects (%)
- Respiratory, thoracic and mediastinal disorders [4, 9]: 9 (25.7%) no. subjects (%)
- Rhinalgia [4, 9]: 0 no. subjects (%)
- Rhinorrhoea [4, 9]: 0 no. subjects (%)
- Sedation [4, 9]: 6 (17.1%) no. subjects (%)
- Skin and subcutaneous tissue disorders [4, 9]: 5 (14.3%) no. subjects (%)
- Somnolence [4, 9]: 4 (11.4%) no. subjects (%)
- Suicidal ideation [4, 9]: 2 (5.7%) no. subjects (%)
- Throat irritation [4, 9]: 3 (8.6%) no. subjects (%)
- Tinnitus [4, 9]: 2 (5.7%) no. subjects (%)
- Toothache [4, 9]: 0 no. subjects (%)
- Upper respiratory tract infection [4, 9]: 0 no. subjects (%)
- Vertigo [4, 9]: 4 (11.4%) no. subjects (%)
- Vision blurred [4, 9]: 3 (8.6%) no. subjects (%)
- Vomiting [4, 9]: 7 (20.0%) no. subjects (%)
- Weight increased [4, 9]: 2 (5.7%) no. subjects (%)
- Aggression [4, 10]: 1 (2.9%) no. subjects (%)
- Agitation [4, 10]: 1 (2.9%) no. subjects (%)
- Cardiac disorders [4, 10]: 1 (2.9%) no. subjects (%)
- Dissociative disorder [4, 10]: 0 no. subjects (%)
